In ChEMBL document CHEMBL1955743, “Potent inhibitors of LpxC for the treatment of Gram-negative infections” (J Med Chem, 2012):
Values after ≈ are worked out from the molar mass of the structure shown.

What was measured:
Pseudomonas aeruginosa [1] = assay: Antibacterial activity against Pseudomonas aeruginosa PAO1 after 16 to 20 hrs by broth microdilution method; type: functional
Staphylococcus aureus = assay: Antibacterial activity against Staphylococcus aureus ATCC 29213 after 16 to 20 hrs by broth microdilution method; type: functional
[2] = target: T1, UDP-3-O-acyl-N-acetylglucosamine deacetylase (Pseudomonas aeruginosa (strain ATCC 15692 / PAO1 / 1C / PRS 101 / LMG12228), UniProt P47205); assay: Inhibition of Pseudomonas aeruginosa LpxC using UDP-3-O-(R-hydroxydecanoyl)-N-acetylglucosamine incubated for 30 mins prior to substrate addition measured after 60 mins by mass spectrophotometry
T1 sequence (P47205 whole entry): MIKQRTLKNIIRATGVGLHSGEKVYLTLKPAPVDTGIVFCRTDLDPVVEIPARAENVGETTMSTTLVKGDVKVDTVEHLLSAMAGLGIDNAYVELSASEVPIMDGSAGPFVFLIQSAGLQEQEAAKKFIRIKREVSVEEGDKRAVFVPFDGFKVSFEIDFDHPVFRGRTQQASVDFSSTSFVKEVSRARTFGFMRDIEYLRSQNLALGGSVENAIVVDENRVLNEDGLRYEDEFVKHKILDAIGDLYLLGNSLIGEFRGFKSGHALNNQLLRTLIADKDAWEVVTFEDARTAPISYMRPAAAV

Pseudomonas aeruginosa [3] = assay: Antibacterial activity against Pseudomonas aeruginosa clinical isolates after 16 to 20 hrs by broth microdilution method; type: functional
Pseudomonas aeruginosa [4] = assay: Antibacterial activity against Pseudomonas aeruginosa after 16 to 20 hrs by broth microdilution method; type: functional
Citrobacter freundii = assay: Antibacterial activity against Citrobacter freundii after 16 to 20 hrs by broth microdilution method; type: functional
Klebsiella aerogenes = assay: Antibacterial activity against Enterobacter aerogenes after 16 to 20 hrs by broth microdilution method; type: functional
Klebsiella pneumoniae = assay: Antibacterial activity against Klebsiella pneumoniae after 16 to 20 hrs by broth microdilution method; type: functional
Escherichia coli = assay: Antibacterial activity against Escherichia coli after 16 to 20 hrs by broth microdilution method; type: functional
Acinetobacter baumannii = assay: Antibacterial activity against Acinetobacter baumannii after 16 to 20 hrs by broth microdilution method; type: functional

MIC (Pseudomonas aeruginosa [1])	MIC (Staphylococcus aureus)	IC50 [2]	Molecule	other results
8 µg/mL (≈ 21.3 µM)	32 µg/mL (≈ 85.2 µM)	26.1 nM	CCc1ccccc1-c1ccc(CC[C@](C)(C(=O)NO)S(C)(=O)=O)cc1	–
> 64 µg/mL	> 64 µg/mL	> 100 nM	C[C@@](CCc1ccc(-c2ccccc2C(N)=O)cc1)(C(=O)NO)S(C)(=O)=O	–
0.5 µg/mL (≈ 1.31 µM)	16 µg/mL (≈ 41.9 µM)	< 1.05 nM	C[C@@](CCc1ccc(-c2ccc(Cl)cc2)cc1)(C(=O)NO)S(C)(=O)=O	–
0.125 µg/mL (≈ 0.342 µM)	32 µg/mL (≈ 87.6 µM)	1.36 nM	C[C@@](CCc1ccc(-c2ccccc2F)cc1)(C(=O)NO)S(C)(=O)=O	–
> 64 µg/mL	> 64 µg/mL	–	C[C@](CCc1ccc(-c2ccccc2)cc1)(C(=O)NO)S(C)(=O)=O	–
1 µg/mL (≈ 2.66 µM)	> 64 µg/mL	12.9 nM	C[C@@](CCc1ccc(-c2ccc(CN)cc2)cc1)(C(=O)NO)S(C)(=O)=O	–
4 µg/mL (≈ 11.5 µM)	> 64 µg/mL	29.7 nM	C[C@@](CCc1ccc(-c2cccnc2)cc1)(C(=O)NO)S(C)(=O)=O	–
1 µg/mL (≈ 2.65 µM)	> 64 µg/mL	7.04 nM	COc1ccccc1-c1ccc(CC[C@](C)(C(=O)NO)S(C)(=O)=O)cc1	–
0.5 µg/mL (≈ 1.31 µM)	32 µg/mL (≈ 83.8 µM)	3.54 nM	C[C@@](CCc1ccc(-c2cccc(Cl)c2)cc1)(C(=O)NO)S(C)(=O)=O	–
32 µg/mL (≈ 82 µM)	> 64 µg/mL	27.8 nM	C[C@@](CCc1ccc(-c2cccc(C(N)=O)c2)cc1)(C(=O)NO)S(C)(=O)=O	–
8 µg/mL (≈ 20.5 µM)	32 µg/mL (≈ 82.2 µM)	6.78 nM	CC(C)c1cccc(-c2ccc(CC[C@](C)(C(=O)NO)S(C)(=O)=O)cc2)c1	–

The next lines start with the molecule.

Molecule	MIC (Pseudomonas aeruginosa [1])	MIC (Staphylococcus aureus)	IC50 [2]	other results
CC(CS(=O)(=O)c1ccc(-c2ccccc2)cc1)(C(=O)NO)S(C)(=O)=O (racemic)	4 µg/mL (≈ 10.1 µM)	> 64 µg/mL	11.9 nM	–
CC(CCc1ccc(-c2ccc(OCCCNC(=N)N)cc2)cc1)(C(=O)NO)S(C)(=O)=O (racemic)	32 µg/mL (≈ 69.2 µM)	32 µg/mL (≈ 69.2 µM)	9.49 nM	–
CC(C)(O/N=C(\C(=O)N[C@@H]1C(=O)N2C(C(=O)[O-])=C(C[n+]3ccccc3)CS[C@H]12)c1csc(N)n1)C(=O)O [CEFTAZIDIME]	–	–	–	MIC50 (Pseudomonas aeruginosa [3]): 16 µg/mL (≈ 29.3 µM); MIC90 (Pseudomonas aeruginosa [3]): > 64 µg/mL
O=C(NO)C1(CCc2ccc(-c3ccccc3)cc2)CCCS1(=O)=O (racemic)	> 64 µg/mL	64 µg/mL (≈ 178 µM)	> 92.5 nM	–
C[C@@](CCc1ccc(-c2cccc(-n3cccn3)c2)cc1)(C(=O)NO)S(C)(=O)=O	32 µg/mL (≈ 77.4 µM)	64 µg/mL (≈ 155 µM)	22.1 nM	–
C[C@H]1[C@H](NC(=O)/C(=N\OC(C)(C)C(=O)O)c2csc(N)n2)C(=O)N1S(=O)(=O)O [AZTREONAM]	–	–	–	MIC90 (Pseudomonas aeruginosa [4]): 64 µg/mL (≈ 147 µM); MIC90 (Citrobacter freundii): > 64 µg/mL; MIC90 (Klebsiella aerogenes): 32 µg/mL (≈ 73.5 µM); MIC90 (Klebsiella pneumoniae): > 64 µg/mL; MIC90 (Escherichia coli): > 64 µg/mL; MIC90 (Acinetobacter baumannii): 32 µg/mL (≈ 73.5 µM)
C[C@@](CCc1ccc(Sc2ccccc2)cc1)(C(=O)NO)S(C)(=O)=O	4 µg/mL (≈ 10.5 µM)	64 µg/mL (≈ 169 µM)	30.4 nM	–
CC(CCc1ccc(OCc2ccccc2)cc1)(C(=O)NO)S(C)(=O)=O (racemic)	2 µg/mL (≈ 5.3 µM)	> 64 µg/mL	5.16 nM	–
C[C@@](CCc1ccc(-c2ccc(OCCCC(=O)O)cc2)cc1)(C(=O)NO)S(C)(=O)=O	8 µg/mL (≈ 17.8 µM)	> 64 µg/mL	21.2 nM	–
O=C(O)c1cn(C2CC2)c2cc(N3CCNCC3)c(F)cc2c1=O [CIPROFLOXACIN]	–	0.25 µg/mL (≈ 0.754 µM)	–	MIC90 (Pseudomonas aeruginosa [4]): 64 µg/mL (≈ 193 µM); MIC90 (Klebsiella aerogenes): 1 µg/mL (≈ 3.02 µM); MIC90 (Klebsiella pneumoniae): 64 µg/mL (≈ 193 µM); MIC90 (Escherichia coli): > 64 µg/mL; MIC90 (Acinetobacter baumannii): 64 µg/mL (≈ 193 µM)
CC(CSc1ccc(-c2ccccc2)cc1)(C(=O)NO)S(C)(=O)=O (racemic)	2 µg/mL (≈ 5.47 µM)	64 µg/mL (≈ 175 µM)	9.04 nM	–
C[C@@](CCc1ccccc1)(C(=O)NO)S(C)(=O)=O	16 µg/mL (≈ 59 µM)	> 64 µg/mL	> 100 nM	–
CC(COc1ccc(-c2ccccc2)cc1)(C(=O)NO)S(C)(=O)=O (racemic)	4 µg/mL (≈ 11.4 µM)	> 64 µg/mL	31.4 nM	–
CC(CCc1ccc(OC2CCCC2)cc1)(C(=O)NO)S(C)(=O)=O (racemic)	4 µg/mL (≈ 11.3 µM)	64 µg/mL (≈ 180 µM)	10.1 nM	–
C[C@@](CCc1ccc(-c2ccc(C(N)=O)cc2)cc1)(C(=O)NO)S(C)(=O)=O	2 µg/mL (≈ 5.12 µM)	> 64 µg/mL	< 2.47 nM	–
NCC[C@H](O)C(=O)N[C@@H]1C[C@H](N)[C@@H](O[C@H]2O[C@H](CN)[C@@H](O)[C@H](O)[C@H]2O)[C@H](O)[C@H]1O[C@H]1O[C@H](CO)[C@@H](O)[C@H](N)[C@H]1O [AMIKACIN]	–	–	–	MIC50 (Pseudomonas aeruginosa [3]): 4 µg/mL (≈ 6.83 µM); MIC90 (Pseudomonas aeruginosa [3]): 32 µg/mL (≈ 54.6 µM)
COc1ccc(CCC(C)(C(=O)NO)S(C)(=O)=O)cc1 (racemic)	16 µg/mL (≈ 53.1 µM)	> 64 µg/mL	> 100 nM	–
POLYMYXIN B	–	–	–	MIC50 (Pseudomonas aeruginosa [3]): 0.5 µg/mL; MIC90 (Pseudomonas aeruginosa [3]): 1 µg/mL
CC(CCc1ccc(-c2ccc(OCCCN)cc2)cc1)(C(=O)NO)S(C)(=O)=O (racemic)	2 µg/mL (≈ 4.76 µM)	> 64 µg/mL	12.7 nM	–
C[C@@](CCc1ccc(-c2ccc(C(=O)O)cc2)cc1)(C(=O)NO)S(C)(=O)=O	64 µg/mL (≈ 163 µM)	> 64 µg/mL	73.6 nM	–
CC(CCc1ccc(OCc2cc[n+]([O-])cc2)cc1)(C(=O)NO)S(C)(=O)=O (racemic)	> 64 µg/mL	> 64 µg/mL	92.7 nM	–
CC(CCc1ccc(-c2ccccc2)cc1)(C(=O)NO)S(=O)(=O)c1ccccc1 (racemic)	64 µg/mL (≈ 156 µM)	32 µg/mL (≈ 78.1 µM)	> 67.9 nM	–
CS(=O)(=O)C(CCc1ccc(-c2ccccc2)cc1)C(=O)NO (racemic)	1 µg/mL (≈ 3 µM)	> 64 µg/mL	13.8 nM	–
CC(CCc1ccc(OCc2ccncc2)cc1)(C(=O)NO)S(C)(=O)=O (racemic)	4 µg/mL (≈ 10.6 µM)	> 64 µg/mL	21.6 nM	–
